Patent publication US9175036B2, “Antimicrobial water treatment membranes and production thereof” (BEN-GURION UNVERSITY OF THE NEGEV RESEARCH AND DEVELOPMENT …, priority 2009, dated 2015)
Values after ≈ are worked out from the molar mass of the structure shown. Square brackets hold non-standard residues; d marks the D form. Peptide text beside a SMILES is read from it.

Assays:
biofilm [1] = assay: Confocal microscope analysis of biofilm developed on modified RO membranes; assay type: cell-based; conditions: biofilm on RO membrane modified with the peptide
Experimental: b) Quantitative Measurements:
For biofilm growth measurements, modified membranes were tested in static conditions and in a flow-through system.
For static conditions membranes were glued with RTV 186 glue to a 1 cm×1 cm glass slides and were incubated in 24-wells plate, containing Green fluorescent protein (GFP) expressing Pseudomonas aeruginosa culture, for 18 hours (37° C.). Then, the membranes were washed with DDW to remove planktonic bacteria and the formed biofilm was detected by Leica DM 2500 confocal laser scanning microscope (CLSM, Wetzlar, Germany).
For the flow-through system, 1 cm×1 cm membranes were glued to a 2.6 cm×7.6 cm glass slide and the slide was placed in a flow cell. First, GFP expressing Pseudomonas aeruginosa was introduced to the cell and incubated for 1 hour. Then, the planktonic bacteria were washed out and sterile growth media was brought in to the cell with 50 ml/h flow rate. After 24 hours the sample was removed from the cell and biofilm fluorescence was detected by confocal laser scanning microscope. The dyed membranes were analyzed by a confocal laser scanning microscope.
Quantitative and qualitative indications for biofilm formation on modified vs. non modified RO membranes were checked.
The results of the confocal microscope analysis of the biofilm that developed on the different membranes showing reduced biofilm formation on the modified membranes are summarized in Table 15.

Enterobacter = assay type: cell-based
Experimental: The IC50 is determined by an essay, suitable for the specific film-forming microorganism in question. For example, in the present invention, the Enterobacter assay, which is described in detail in the methods section below, was used to determine the antimicrobial activities of the tested peptides.
Quantitative Biofilm Growth Inhibition Assay in a 96-Wells Microtiter Plate:
Enterobacter culture (50 ml) was grown in tryptic soy broth media (TBS; prepared according to manufacturer instructions) overnight at 25° C. On the next day the turbidity of the culture was measured at 600 nm (Biomate 5 UV-Vis spectrophotometer, Thermo Fisher Scientific, Waltham, Mass.) and, if necessary, TSB was added to dilute the culture until the OD was 1.
Then 96 wells polystyrene microtiter plates (flat bottom, transparent, Becton Dickinson, Franklin Lakes, New-Jersey) were filled as following: Negative control wells (without bacteria) were filled with 125 μl TSB media and 25 μl of DDW:PBS1:1 buffer solution; Positive control wells (without peptide solution) were filled with 110 μl TSB media, 25 μl of DDW:PBS1:1 buffer solution and 15 μl of Enterobacter culture solution; Wells that contained AMPs at different concentrations were filled with 110 μl TSB media, 25 μl of peptide solution and 15 μl of Enterobacter culture solution.
The plates were incubated at 25° C. overnight. On the next day the plates were gently rinsed 5 times with distilled water to remove the planktonic bacteria and then dried at room temperature for 10 minutes. Then the biofilm on the walls of the wells was dyed by adding 200 μl, of 3% crystal violet (CV) to the wells. After 15 minutes at room temperature, the plates were gently rinsed 5 times with distilled water to remove excess dye and dried at room temperature for 10 minutes (Djordjevic, Wiedmann & McLandsborough 2002). The dry plates were filled with 200 μl ethanol, covered and gently agitated (Duomax 1030 rocking platform shaker, Heidolph, Kelheim, Germany) for 1 hour. The absorbance of extracted color was measured in a plate reading spectrophotometer (Infinite M200, Tecan, Mannedorf, Switzerland) at 595 nm.
The effect of linking the arm to a peptide, on the antimicrobial activity of the peptides was assessed by measuring the peptide activity in 96-microtitter plates in solution and comparing to activities of the normal peptides. Experiments were performed in water and in 3% NaCl solution. Table 6 presents the antimicrobial activity (IC50) of peptide-arm systems, in water and in 3% NaCl solution. Values were extracted from dose-response curves.
Different concentration solutions of peptides, bought or prepared as detailed in the methods section above, were prepared by diluting a stock solution with 1% ACN. Stock solution was prepared by dissolving water soluble peptides in DDW:PBS1:1. PBS (pH=7.4) was prepared by adding to 800 ml DDW, 8 grams NaCl, 0.2 grams KCl, 1.44 grams Na2HPO4 and 0.2 grams KH2PO4.
To evaluate whether attachment of a tether to the AMPs has an effect on the inhibitory potency, a PEGylated peptide (HS-PEG-D-Modelin-1) was prepared, and its inhibitory potency compared to that of the ‘normal’ peptide All-D-Modelin-1. Peptides were diluted in 2-fold serial dilutions, and the antibacterial activity of the peptides was determined in sterile 96-multititter plates.

biofilm [2] = assay: Biovolume of biofilm on graft-polymerized RO membranes (FIGS. 4-6); assay type: cell-based; conditions: immobilized on RO membrane after graft polymerization and 1,4-butadiamine; FIGS. 4 and 5
Description: FIGS. 4 and 5 show the biovolume of biofilm on RO membranes modified with Cys-Modelin-1, whereas in FIG. 4: (A) is an unmodified membrane (control), (B) is after Graft polymerization (GP), (C) is after GP and 1,4-butadiamine, (D) is after GP, 1,4-butadiamine and MI (maleimide-hexanoic acid), and (E) is after GP, 1,4-butadiamine, MI and C-Modelin-1.
Another example for immobilization through multivalent system is shown in FIG. 6, showing the volume of the biofilm by graft polymerization with 0.2:0.2 M MA:PEGM and immobilization with All-D-Cys-Modelin-1. […] The inhibition was very much dependent of the graft polymerization step: Grafting by 0.2:0.2 M of monomers PEGMA:MA (see Scheme 6 for monomer structures) gave the best results.

[3] = tested on: proteolytic enzymes (trypsin, chymotrypsin, pronase E); assay type: in vitro ADME
Experimental: Resistance to proteolysis can be determined according to trypsin, chymotrypsin or pronase E assay, as detailed below in the Methods section, namely by adding to each 90 μl of peptide solution, 10 μl of enzyme solution, containing either a mixture of 0.5 μg trypsin (0.05 mg/ml) and 0.5 μg chymotrypsin (0.05 mg/ml) or 4 μg pronase E (0.4 mg/ml) in 0.001M HCl. The enzymatic degradation of the peptide is monitored at controlled temperature of 25° C. A peptide can be considered to be resistant to proteolysis if it withstands this assay for at least 1 week, maintaining at least 90% of its initial concentration after this period.
(§1) Proteolytic Stability Assay of Peptides:
Stock solution (0.56 mg/ml) of each peptide was prepared by dissolving the peptide in PBS (pH=7.4). […] The enzymatic degradation of the peptide was monitored at controlled temperature of 25° C. by RP-HPLC with detection at 220 nm using Phenomenex C18 4.6×250 mm column with 5 μm particle size and 110 Å pore size. […]
Enzymes concentrations were determined by preliminary experiment that was performed to screen for concentrations allowing complete degradation of C-Modelin-1 within 1-2 hours. 10 μl of enzyme solution with varying concentrations were added to 90 μl of peptide solution (0.56 mg/ml) and enzymatic degradation of the peptide was monitored by RP-HPLC. […]

pronase E = assay type: in vitro ADME
Experimental: as §1
Stock solution (0.56 mg/ml) of each peptide was prepared by dissolving the peptide in PBS (pH=7.4). To each 90 μl of peptide solution 10 μl of enzyme solution, containing either a mixture of 0.5 μg trypsin (0.05 mg/ml) and 0.5 μg chymotrypsin (0.05 mg/ml) or 4 μg pronase E (0.4 mg/ml) in 0.001M HCl, was added. The enzymatic degradation of the peptide was monitored at controlled temperature of 25° C. by RP-HPLC with detection at 220 nm using Phenomenex C18 4.6×250 mm column with 5 μm particle size and 110 Å pore size. Elution gradient was: t=0 minutes, B=15%; t=5 minutes, B=15%; t=40 minutes, B=70%; t=42 minutes, B=95%; t=52 minutes, B=95% (flow rate 1 ml/minute).
Enzymes concentrations were determined by preliminary experiment that was performed to screen for concentrations allowing complete degradation of C-Modelin-1 within 1-2 hours. 10 μl of enzyme solution with varying concentrations were added to 90 μl of peptide solution (0.56 mg/ml) and enzymatic degradation of the peptide was monitored by RP-HPLC.
The enzymatic degradation was monitored at a fixed temperature of 25° C. by RP-HPLC at 220 nm, as described before. Elution gradient started with 85% A/15% B for 5 minutes continued with 30% A/70% B for 35 minutes and ended with 5% A-95% B for 12 minutes.
All the enzymes were used in concentrations allowing complete degradation of C-Modelin-1 within […].

Structure (SMILES) | Biovolume (biofilm [1]) | Thickness (biofilm [1]) [μm] | IC50 Normal conditions (Enterobacter) [µg/mL] | reduced biofilm growth (biofilm [2]) [%] | IC50 (Enterobacter) [µg/mL] | also measured
CC(C)C[C@H](NC(=O)[C@H](CCCCN)NC(=O)CNC(=O)CNC(=O)CNC(=O)CNC(=O)[C@@H](N)CS)C(=O)N[C@@H](Cc1c[nH]c2ccccc12)C(=O)N[C@@H](CCCCN)C(=O)N[C@@H](CCCCN)C(=O)N[C@@H](Cc1c[nH]c2ccccc12)C(=O)N[C@@H](C)C(=O)N[C@@H](CCCCN)C(=O)N[C@@H](CCCCN)C(=O)N[C@@H](Cc1c[nH]c2ccccc12)C(=O)N[C@@H](CC(C)C)C(=O)N[C@@H](CCCCN)C(=O)N[C@@H](CC(C)C)C(=O)N[C@@H](Cc1c[nH]c2ccccc12)C(=O)N[C@@H](CCCCN)C(=O)N[C@@H](C)C(=O)N[C@@H](Cc1c[nH]c2ccccc12)C(=O)O [CG4-Modelin-1] (H-CGGGGKLWKKWAKKWLKLWKAW-OH; N-terminus assumed) | 9.3 * 10^4 μm^3 | 9.5 | 100 (≈ 37.6 µM) |  |  | 
O=C(O)CCCCCN1C(=O)C=CC1=O [maleimide-hexanoic acid, 6-maleimidohexanoic acid] |  |  |  | 95 |  | 
CC(C)C[C@@H](NC(=O)[C@@H](CCCCN)NC(=O)[C@H](N)CS)C(=O)N[C@H](Cc1c[nH]c2ccccc12)C(=O)N[C@H](CCCCN)C(=O)N[C@H](CCCCN)C(=O)N[C@H](Cc1c[nH]c2ccccc12)C(=O)N[C@H](C)C(=O)N[C@H](CCCCN)C(=O)N[C@H](CCCCN)C(=O)N[C@H](Cc1c[nH]c2ccccc12)C(=O)N[C@H](CC(C)C)C(=O)N[C@H](CCCCN)C(=O)N[C@H](CC(C)C)C(=O)N[C@H](Cc1c[nH]c2ccccc12)C(=O)N[C@H](CCCCN)C(=O)N[C@H](C)C(=O)N[C@H](Cc1c[nH]c2ccccc12)C(=O)O [All-D C-Modelin-1, CKLWKKWAKKWLKLWKAW] (H-[dC][dK][dL][dW][dK][dK][dW][dA][dK][dK][dW][dL][dK][dL][dW][dK][dA][dW]-OH) |  |  |  |  | 10 (≈ 4.11 µM) | higher stability compared with the unprotected Cys-Modelin-1 [3]: over 100 fold; remained stable when treated with the proteolytic enzymes [3]: over 2 weeks
CC(C)C[C@H](NC(=O)[C@H](CCCCN)NC(=O)[C@H](CC(C)C)NC(=O)[C@H](Cc1c[nH]c2ccccc12)NC(=O)[C@H](CCCCN)NC(=O)[C@H](CCCCN)NC(=O)[C@H](C)NC(=O)[C@H](Cc1c[nH]c2ccccc12)NC(=O)[C@H](CCCCN)NC(=O)[C@H](CCCCN)NC(=O)[C@H](Cc1c[nH]c2ccccc12)NC(=O)[C@H](CC(C)C)NC(=O)[C@H](CCCCN)NC(=O)[C@@H](N)CS)C(=O)N[C@@H](Cc1c[nH]c2ccccc12)C(=O)N[C@@H](CCCCN)C(=O)N[C@@H](C)C(=O)N[C@@H](Cc1c[nH]c2ccccc12)C(=O)O [C-Modelin-1, CKLWKKWAKKWLKLWKAW] (H-CKLWKKWAKKWLKLWKAW-OH) |  |  |  | 65 | 11 (≈ 4.52 µM) | digestion first detected after (pronase E): 5 min; peptides completely degraded after (pronase E): 135 min
N=C(N)NCCC[C@H](NC(=O)CNC(=O)CNC(=O)CNC(=O)[C@@H](N)CS)C(=O)N[C@@H](CCCNC(=N)N)C(=O)N[C@@H](Cc1c[nH]c2ccccc12)C(=O)N[C@@H](Cc1c[nH]c2ccccc12)C(=O)N[C@@H](CCCNC(=N)N)C(=O)N[C@@H](Cc1ccccc1)C(N)=O [CG3-Hexapeptide-4, CGGGRRWWRF-NH2] (H-CGGGRRWWRF-NH2; N-terminus assumed) | 8.9 * 10^4 μm^3 | 9.5 | 160 (≈ 125 µM) |  |  | IC50 in 3% Aqueous NaCl (Enterobacter): 150 µg/mL (≈ 117 µM)
